In the supplement of paper PMC10307832:

Key:
Test in all cases: relative viability (nuclei count vs DMSO), 5 days (fraction); higher = more cells survive
NCI-H2170 = test system: NCI-H2170
Outline: (§1)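 After 5 days of treatment, lung cancer cells in 1536-well plates were fixed and stained in a single step (final 0.05% Triton X-100, 1% formaldehyde, 1 ug/ml Hoechst) and their nuclei counted on 4× images. Treatment had been applied by pin tool the day after seeding as one drug alone or as a fixed anchor-drug dose with five library-drug doses (not always all listed) in √10 steps. Relative viability is the nuclei count of treated wells divided by that of vehicle wells, and values are medians of duplicate plates.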

NCI-H1755 = test system: NCI-H1755
Outline: as §1

EMC-BAC-2 = test system: EMC-BAC-2
Outline: as §1

NCI-H2023 = test system: NCI-H2023
Outline: as §1

HCC-44 = test system: HCC-44
Outline: as §1

HOP-62 = test system: HOP-62
Outline: as §1

SW 900 = test system: SW 900
Outline: as §1

NCI-H1437 = test system: NCI-H1437
Outline: as §1

LU99A = test system: LU99A
Outline: as §1

NCI-H1734 = test system: NCI-H1734
Outline: as §1

NCI-H358 = test system: NCI-H358
Outline: as §1

LC-2-ad = test system: LC-2-ad
Outline: as §1

BEN = test system: BEN
Outline: as §1

NCI-H1395 = test system: NCI-H1395
Outline: as §1

HCC-15 = test system: HCC-15
Outline: as §1

NCI-H3122 = test system: NCI-H3122
Outline: as §1

SW 1573 = test system: SW 1573
Outline: as §1

NCI-H650 = test system: NCI-H650
Outline: as §1

NCI-H727 = test system: NCI-H727
Outline: as §1

NCI-H2126 = test system: NCI-H2126
Outline: as §1

NCI-H1915 = test system: NCI-H1915
Outline: as §1

CN1CCN(CCOc2cc(OC3CCOCC3)c3c(Nc4c(Cl)ccc5c4OCO5)ncnc3c2)CC1 [Saracatinib] + Nc1ncn([C@H]2C[C@H](O)[C@@H](CO)O2)c(=O)n1 [Decitabine] (partner 2 µM)
relative viability (NCI-H2170; first compound 0.02 µM): 0.453 | relative viability (NCI-H2170; first compound 0.2 µM): 0.412 | relative viability (NCI-H2170; first compound 0.6325 µM): 0.452 | relative viability (NCI-H2170; first compound 2 µM): 0.415 | relative viability (NCI-H1755; first compound 0.02 µM): 0.711 | relative viability (NCI-H1755; first compound 0.2 µM): 0.604 | relative viability (NCI-H1755; first compound 0.6325 µM): 0.72 | relative viability (NCI-H1755; first compound 2 µM): 0.691 | relative viability (EMC-BAC-2; first compound 0.02 µM): 1.05 | relative viability (EMC-BAC-2; first compound 0.2 µM): 0.922 | relative viability (EMC-BAC-2; first compound 0.6325 µM): 1.02 | relative viability (EMC-BAC-2; first compound 2 µM): 0.91 | relative viability (NCI-H2023; first compound 0.02 µM): 0.245 | relative viability (NCI-H2023; first compound 0.2 µM): 0.176 | relative viability (NCI-H2023; first compound 0.6325 µM): 0.204 | relative viability (NCI-H2023; first compound 2 µM): 0.222 | relative viability (HCC-44; first compound 0.02 µM): 0.964 | relative viability (HCC-44; first compound 0.2 µM): 0.854 | relative viability (HCC-44; first compound 0.6325 µM): 0.994 | relative viability (HCC-44; first compound 2 µM): 0.94 | relative viability (HOP-62; first compound 0.02 µM): 0.222 | relative viability (HOP-62; first compound 0.2 µM): 0.188 | relative viability (HOP-62; first compound 0.6325 µM): 0.197 | relative viability (HOP-62; first compound 2 µM): 0.185 | relative viability (SW 900; first compound 0.02 µM): 0.544 | relative viability (SW 900; first compound 0.2 µM): 0.384 | relative viability (SW 900; first compound 0.6325 µM): 0.399 | relative viability (SW 900; first compound 2 µM): 0.635 | relative viability (NCI-H1437; first compound 0.02 µM): 0.608 | relative viability (NCI-H1437; first compound 0.2 µM): 0.601 | relative viability (NCI-H1437; first compound 0.6325 µM): 0.64 | relative viability (NCI-H1437; first compound 2 µM): 0.622 | relative viability (LU99A; first compound 0.02 µM): 0.857 | relative viability (LU99A; first compound 0.2 µM): 0.807 | relative viability (LU99A; first compound 0.6325 µM): 0.678 | relative viability (LU99A; first compound 2 µM): 0.658 | relative viability (NCI-H1734; first compound 0.02 µM): 0.524 | relative viability (NCI-H1734; first compound 0.6325 µM): 0.491 | relative viability (NCI-H1734; first compound 2 µM): 0.475 | relative viability (NCI-H358; first compound 0.02 µM): 0.224 | relative viability (NCI-H358; first compound 0.2 µM): 0.198 | relative viability (NCI-H358; first compound 0.6325 µM): 0.179 | relative viability (NCI-H358; first compound 2 µM): 0.146 | relative viability (LC-2-ad; first compound 0.02 µM): 0.79 | relative viability (LC-2-ad; first compound 0.2 µM): 0.751 | relative viability (LC-2-ad; first compound 0.6325 µM): 0.779 | relative viability (LC-2-ad; first compound 2 µM): 0.789 | relative viability (BEN; first compound 0.02 µM): 0.834 | relative viability (BEN; first compound 0.2 µM): 0.778 | relative viability (BEN; first compound 0.6325 µM): 0.747 | relative viability (BEN; first compound 2 µM): 0.628 | relative viability (NCI-H1395; first compound 0.02 µM): 0.752 | relative viability (NCI-H1395; first compound 0.2 µM): 0.753 | relative viability (NCI-H1395; first compound 0.6325 µM): 0.737 | relative viability (NCI-H1395; first compound 2 µM): 0.635 | relative viability (HCC-15; first compound 0.02 µM): 0.73 | relative viability (HCC-15; first compound 0.2 µM): 0.62 | relative viability (HCC-15; first compound 0.6325 µM): 0.605 | relative viability (HCC-15; first compound 2 µM): 0.557 | relative viability (NCI-H3122; first compound 0.02 µM): 0.365 | relative viability (NCI-H3122; first compound 0.2 µM): 0.375 | relative viability (NCI-H3122; first compound 0.6325 µM): 0.314 | relative viability (NCI-H3122; first compound 2 µM): 0.294 | relative viability (SW 1573; first compound 0.02 µM): 0.512 | relative viability (SW 1573; first compound 0.2 µM): 0.481 | relative viability (SW 1573; first compound 0.6325 µM): 0.458 | relative viability (SW 1573; first compound 2 µM): 0.434 | relative viability (NCI-H650; first compound 0.02 µM): 0.319 | relative viability (NCI-H650; first compound 0.2 µM): 0.3 | relative viability (NCI-H650; first compound 0.6325 µM): 0.295 | relative viability (NCI-H650; first compound 2 µM): 0.288 | relative viability (NCI-H727; first compound 0.02 µM): 0.917 | relative viability (NCI-H727; first compound 0.2 µM): 0.894 | relative viability (NCI-H727; first compound 0.6325 µM): 0.992 | relative viability (NCI-H727; first compound 2 µM): 0.712 | relative viability (NCI-H2126; first compound 0.02 µM): 0.61 | relative viability (NCI-H2126; first compound 0.2 µM): 0.567 | relative viability (NCI-H2126; first compound 0.6325 µM): 0.551 | relative viability (NCI-H2126; first compound 2 µM): 0.454 | relative viability (NCI-H1915; first compound 0.02 µM): 0.245 | relative viability (NCI-H1915; first compound 0.2 µM): 0.264 | relative viability (NCI-H1915; first compound 0.6325 µM): 0.255 | relative viability (NCI-H1915; first compound 2 µM): 0.237

CN1CCN(CCOc2cc(OC3CCOCC3)c3c(Nc4c(Cl)ccc5c4OCO5)ncnc3c2)CC1 [Saracatinib] + O=C(CCCCCCC(=O)Nc1ccccc1)NO [Vorinostat] (partner 1 µM)
relative viability (NCI-H2170; first compound 0.02 µM): 0.746 | relative viability (NCI-H2170; first compound 0.2 µM): 0.678 | relative viability (NCI-H2170; first compound 0.6325 µM): 0.93 | relative viability (NCI-H2170; first compound 2 µM): 0.571 | relative viability (NCI-H1755; first compound 0.02 µM): 0.687 | relative viability (NCI-H1755; first compound 0.2 µM): 0.539 | relative viability (NCI-H1755; first compound 0.6325 µM): 0.861 | relative viability (NCI-H1755; first compound 2 µM): 0.707 | relative viability (EMC-BAC-2; first compound 0.02 µM): 0.417 | relative viability (EMC-BAC-2; first compound 0.2 µM): 0.43 | relative viability (EMC-BAC-2; first compound 0.6325 µM): 0.417 | relative viability (EMC-BAC-2; first compound 2 µM): 0.291 | relative viability (NCI-H2023; first compound 0.02 µM): 0.652 | relative viability (NCI-H2023; first compound 0.2 µM): 0.591 | relative viability (NCI-H2023; first compound 0.6325 µM): 0.73 | relative viability (NCI-H2023; first compound 2 µM): 0.566 | relative viability (HCC-44; first compound 0.02 µM): 1.14 | relative viability (HCC-44; first compound 0.2 µM): 1.14 | relative viability (HCC-44; first compound 0.6325 µM): 1 | relative viability (HCC-44; first compound 2 µM): 1.19 | relative viability (HOP-62; first compound 0.02 µM): 0.624 | relative viability (HOP-62; first compound 0.2 µM): 0.611 | relative viability (HOP-62; first compound 0.6325 µM): 0.769 | relative viability (HOP-62; first compound 2 µM): 0.618 | relative viability (SW 900; first compound 0.02 µM): 0.683 | relative viability (SW 900; first compound 0.2 µM): 0.407 | relative viability (SW 900; first compound 0.6325 µM): 0.676 | relative viability (SW 900; first compound 2 µM): 0.367 | relative viability (NCI-H1437; first compound 0.02 µM): 1.05 | relative viability (NCI-H1437; first compound 0.2 µM): 0.995 | relative viability (NCI-H1437; first compound 0.6325 µM): 1.14 | relative viability (NCI-H1437; first compound 2 µM): 1.17 | relative viability (LU99A; first compound 0.02 µM): 0.445 | relative viability (LU99A; first compound 0.2 µM): 0.339 | relative viability (LU99A; first compound 0.6325 µM): 0.418 | relative viability (LU99A; first compound 2 µM): 0.404 | relative viability (NCI-H1734; first compound 0.02 µM): 0.793 | relative viability (NCI-H1734; first compound 0.6325 µM): 0.837 | relative viability (NCI-H1734; first compound 2 µM): 0.652 | relative viability (NCI-H358; first compound 0.02 µM): 0.645 | relative viability (NCI-H358; first compound 0.2 µM): 0.442 | relative viability (NCI-H358; first compound 0.6325 µM): 0.526 | relative viability (NCI-H358; first compound 2 µM): 0.255 | relative viability (LC-2-ad; first compound 0.02 µM): 0.757 | relative viability (LC-2-ad; first compound 0.2 µM): 0.668 | relative viability (LC-2-ad; first compound 0.6325 µM): 0.777 | relative viability (LC-2-ad; first compound 2 µM): 0.68 | relative viability (BEN; first compound 0.02 µM): 0.54 | relative viability (BEN; first compound 0.2 µM): 0.57 | relative viability (BEN; first compound 0.6325 µM): 0.54 | relative viability (BEN; first compound 2 µM): 0.576 | relative viability (NCI-H1395; first compound 0.02 µM): 0.766 | relative viability (NCI-H1395; first compound 0.2 µM): 0.632 | relative viability (NCI-H1395; first compound 0.6325 µM): 0.706 | relative viability (NCI-H1395; first compound 2 µM): 0.464 | relative viability (HCC-15; first compound 0.02 µM): 0.902 | relative viability (HCC-15; first compound 0.2 µM): 0.859 | relative viability (HCC-15; first compound 0.6325 µM): 0.931 | relative viability (HCC-15; first compound 2 µM): 0.861 | relative viability (NCI-H3122; first compound 0.02 µM): 0.984 | relative viability (NCI-H3122; first compound 0.2 µM): 0.553 | relative viability (NCI-H3122; first compound 0.6325 µM): 0.891 | relative viability (NCI-H3122; first compound 2 µM): 0.788 | relative viability (SW 1573; first compound 0.02 µM): 0.699 | relative viability (SW 1573; first compound 0.2 µM): 0.702 | relative viability (SW 1573; first compound 0.6325 µM): 0.664 | relative viability (SW 1573; first compound 2 µM): 0.47 | relative viability (NCI-H650; first compound 0.02 µM): 0.5 | relative viability (NCI-H650; first compound 0.2 µM): 0.365 | relative viability (NCI-H650; first compound 0.6325 µM): 0.384 | relative viability (NCI-H650; first compound 2 µM): 0.857 | relative viability (NCI-H727; first compound 0.02 µM): 1.12 | relative viability (NCI-H727; first compound 0.2 µM): 0.996 | relative viability (NCI-H727; first compound 0.6325 µM): 1.23 | relative viability (NCI-H727; first compound 2 µM): 0.888 | relative viability (NCI-H2126; first compound 0.02 µM): 0.936 | relative viability (NCI-H2126; first compound 0.2 µM): 0.647 | relative viability (NCI-H2126; first compound 0.6325 µM): 0.713 | relative viability (NCI-H2126; first compound 2 µM): 0.539 | relative viability (NCI-H1915; first compound 0.02 µM): 0.472 | relative viability (NCI-H1915; first compound 0.2 µM): 0.462 | relative viability (NCI-H1915; first compound 0.6325 µM): 0.477 | relative viability (NCI-H1915; first compound 2 µM): 0.477
